Converted amounts (≈) assume the structure as drawn.
Columns and labels:
hERG (KCNH2) = hERG (KCNH2) (Homo sapiens, UniProt Q12809); experiment: Displacement of [3H]astemizole from human ERG expressed in HEK293 cell membranes at 10 uM incubated for 75 mins by scintillation counting method; conditions: HEK293 cell membranes that express hERG, probe [3H]astemizole
Plasmodium falciparum = experiment: Antimalarial activity against Plasmodium falciparum Dd2 assessed as inhibition of parasite proliferation; type: functional
[1] = Lipophilicity, log D of the compound by HPLC method; type: physicochemical
[2] = Stability in mouse microsomes assessed as compound remaining at 1 uM after 1 hr at 37 degC by UPLC-MS method; type: ADME, Microsome; conditions: read-out: Stability
[3] = Solubility in PBS buffet at pH 7.4 at 100 uM incubated for 18 hrs by UPLC-MS method; type: physicochemical; conditions: for solubility: buffer, pH 7.4, 18 h, 100 µM
Plasmodium berghei [4] = experiment: Antimalarial activity against Plasmodium berghei ANKA infected in CD1 Swiss albino mouse assessed as reduction in parasitemia; type: functional
[5] = Plasma concentration CD1 mouse at 20 mg/kg, ip dosed through cassette administration measured after 2 hrs by LC-MS/MS method; type: ADME, organism-based; parameters: dose 20 mg/kg, route intraperitoneal
[6] = Plasma concentration in Plasmodium berghei ANKA infected CD1 Swiss albino mouse at 100 mg/kg, ip dosed seven times every 12 hrs over 3 days measured 30 mins after final dose on day 3; type: ADME, organism-based; parameters: dose 100 mg/kg, route intraperitoneal
Plasmodium berghei [7] = experiment: Antimalarial activity against Plasmodium berghei ANKA infected in CD1 Swiss albino mouse assessed as reduction in parasitemia level at 100 mg/kg, ip dosed seven times every 12 hrs over 3 days relative to control; type: functional; conditions: route intraperitoneal

Chain of hERG (KCNH2) (Q12809 whole entry): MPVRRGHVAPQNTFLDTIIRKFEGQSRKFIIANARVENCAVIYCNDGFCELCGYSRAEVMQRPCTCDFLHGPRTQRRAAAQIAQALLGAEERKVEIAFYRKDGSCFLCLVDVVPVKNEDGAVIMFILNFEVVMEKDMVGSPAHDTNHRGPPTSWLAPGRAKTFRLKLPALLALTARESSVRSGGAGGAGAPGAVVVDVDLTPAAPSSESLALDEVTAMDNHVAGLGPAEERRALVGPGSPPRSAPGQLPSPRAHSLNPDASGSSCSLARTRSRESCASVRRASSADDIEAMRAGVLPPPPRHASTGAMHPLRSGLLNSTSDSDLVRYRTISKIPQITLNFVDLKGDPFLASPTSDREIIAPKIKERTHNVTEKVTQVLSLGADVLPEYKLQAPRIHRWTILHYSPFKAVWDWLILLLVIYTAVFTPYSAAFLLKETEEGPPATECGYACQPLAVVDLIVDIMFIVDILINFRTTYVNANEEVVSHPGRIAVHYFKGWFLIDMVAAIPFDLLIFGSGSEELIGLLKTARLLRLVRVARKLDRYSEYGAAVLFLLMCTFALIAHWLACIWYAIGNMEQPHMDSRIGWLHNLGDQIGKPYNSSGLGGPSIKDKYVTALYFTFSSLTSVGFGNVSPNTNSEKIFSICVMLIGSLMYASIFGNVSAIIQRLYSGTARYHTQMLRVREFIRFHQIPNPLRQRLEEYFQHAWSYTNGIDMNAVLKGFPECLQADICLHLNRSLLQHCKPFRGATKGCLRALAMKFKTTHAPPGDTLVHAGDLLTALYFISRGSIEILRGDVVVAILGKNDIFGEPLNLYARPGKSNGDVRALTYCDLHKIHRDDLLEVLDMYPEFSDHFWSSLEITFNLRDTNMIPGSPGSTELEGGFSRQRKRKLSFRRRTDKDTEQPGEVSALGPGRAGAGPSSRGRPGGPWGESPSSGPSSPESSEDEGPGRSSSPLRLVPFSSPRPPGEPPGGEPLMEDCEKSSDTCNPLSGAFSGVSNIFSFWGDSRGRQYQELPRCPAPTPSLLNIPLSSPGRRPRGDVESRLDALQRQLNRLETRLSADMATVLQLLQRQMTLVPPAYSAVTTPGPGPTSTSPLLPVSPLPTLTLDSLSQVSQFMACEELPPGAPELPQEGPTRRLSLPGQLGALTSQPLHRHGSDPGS

| Structure (SMILES) | GI50 (Plasmodium falciparum) | logD [1] | remaining at 1 h, 1 µM [2] | solubility [3] | further results |
| --- | --- | --- | --- | --- | --- |
| Cc1noc(C)c1NC(=O)Nc1ccc2c(c1)C(=O)N([C@@H](C)CNCC(F)(F)F)C[C@@H](C)[C@H](CN(C)S(=O)(=O)c1ccc(F)cc1)OCCCC[C@H](C)O2 | 9 nM | 3.9 | < 5% |  | inhibition at 1.25 h, 10 µM (hERG (KCNH2)): 15% |
| COc1ccc(COC[C@H](C)N2C[C@@H](C)[C@H](CN(C)S(=O)(=O)c3ccc(F)cc3)OCCCC[C@H](C)Oc3ccsc3C2=O)cc1 | 481 nM |  |  | < 5 µM |  |
| COc1ccc(COC[C@H](C)N2C[C@@H](C)[C@H](CN(C)S(=O)(=O)c3ccc(F)cc3)OCCCC[C@H](C)Oc3ncc(F)cc3C2=O)cc1 | 162 nM |  |  | < 5 µM |  |
| COc1ccc(COC[C@H](C)N2C[C@@H](C)[C@H](CN(C)S(=O)(=O)c3ccc(F)cc3)OCCCC[C@H](C)OCCC2=O)cc1 | 3410 nM |  |  | < 5 µM |  |
| CCN(CC)C[C@H](C)N1C[C@@H](C)[C@H](CN(C)S(=O)(=O)c2ccc(F)cc2)OCCCC[C@H](C)Oc2ncccc2C1=O | 79 nM |  | < 5% | > 100 µM |  |
| C[C@@H]1CN([C@@H](C)CN(C)Cc2cc(F)ccc2F)C(=O)c2cccnc2O[C@@H](C)CCCCO[C@H]1CN(C)S(=O)(=O)c1ccc(F)cc1 | 10 nM |  |  | < 5 µM |  |
| COc1ccc(COC[C@H](C)N2C[C@@H](C)[C@H](CN(C)S(=O)(=O)c3ccc(F)cc3)OCCCC[C@H](C)Oc3nccnc3C2=O)cc1 | 214 nM |  |  | < 5 µM |  |
| Cc1noc(C)c1NC(=O)Nc1ccc2c(c1)C(=O)N([C@@H](C)CNCC(C)(C)C)C[C@@H](C)[C@H](CN(C)S(=O)(=O)c1ccc(F)cc1)OCCCC[C@H](C)O2 | 14 nM | 3.8 | 5% | 7 µM (≈ 5.41 µg/mL) |  |
| COc1ccc(COC[C@H](C)N2C[C@@H](C)[C@H](CN(C)S(=O)(=O)c3ccc(F)cc3)OCCCCCNc3ccc(NC(=O)Nc4c(C)noc4C)cc3C2=O)cc1 | 76 nM |  |  | < 5 µM |  |
| COc1ccc(COC[C@H](C)N2C[C@@H](C)[C@H](CN(C)S(=O)(=O)c3ccc(F)cc3)OCCCC[C@H](C)Oc3cc(C(F)(F)F)ccc3C2=O)cc1 | 48 nM |  |  | < 5 µM |  |
| COc1ccc(COC[C@H](C)N2C[C@@H](C)[C@H](CN(C)S(=O)(=O)c3ccc(F)cc3)Oc3ccc(NC(=O)Nc4c(C)noc4C)cc3C2=O)cc1 | > 5000 nM |  |  |  |  |
| Cc1noc(C)c1NC(=O)Nc1ccc2c(c1)C(=O)N([C@@H](C)CN(C)C)C[C@@H](C)[C@H](CN(C)S(=O)(=O)c1ccc(F)cc1)OCCCCCO2 | 111 nM |  |  | > 100 µM |  |
| COc1ccc(COC[C@H](C)N2C[C@@H](C)[C@H](CN(C)S(=O)(=O)c3ccc(F)cc3)OCCCC[C@H](C)Oc3cc(F)ccc3C2=O)cc1 | 38 nM |  |  | < 5 µM |  |
| COc1ccc(COC[C@H](C)N2C[C@@H](C)[C@H](CN(C)S(=O)(=O)c3ccc(F)cc3)OCCCCCOc3ccc(NC(=O)Nc4c(C)noc4C)cc3C2=O)cc1 | 6 nM |  |  |  |  |
| Cc1noc(C)c1NC(=O)Nc1ccc2c(c1)C(=O)N([C@@H](C)CN(C)C)C[C@@H](C)[C@H](CN(C)S(=O)(=O)c1ccc(F)cc1)OCCCCO2 | 91 nM |  | 15% | > 100 µM |  |
| COc1ccc(COC[C@H](C)N2C[C@@H](C)[C@H](CN(C)S(=O)(=O)c3ccc(F)cc3)OCCCC[C@H](C)Oc3ncccc3C2=O)cc1 | 59 nM |  |  | < 5 µM |  |
| COc1ccc(COC[C@H](C)N2C[C@@H](C)[C@H](CN(C)S(=O)(=O)c3ccc(F)cc3)OCCCCOc3ccc(NC(=O)Nc4c(C)noc4C)cc3C2=O)cc1 | 17 nM |  | 17% | < 5 µM |  |
| Cc1noc(C)c1NC(=O)Nc1ccc2c(c1)C(=O)N(C(C)C)C[C@@H](C)[C@H](CN(C)S(=O)(=O)c1ccc(F)cc1)OCCCC[C@H](C)O2 | 22 nM | 4 | < 5% |  | inhibition at 1.25 h, 10 µM (hERG (KCNH2)): 0%; solubility at 18 h, 100 µM ([3]; PBS buffer, pH 7.4): < 5 µM |
| COc1ccc(COC[C@H](C)N2C[C@@H](C)[C@H](CN(C)S(=O)(=O)c3ccc(F)cc3)OCCCC[C@H](C)Oc3ccc(F)cc3C2=O)cc1 | 162 nM |  |  | < 5 µM |  |

| Structure (SMILES) | GI50 (Plasmodium falciparum) | logD [1] | remaining at 1 h, 1 µM [2] | solubility [3] | further results |
| --- | --- | --- | --- | --- | --- |
| COc1ccc(COC[C@H](C)N2C[C@@H](C)[C@H](CN(C)S(=O)(=O)c3ccc(F)cc3)OCCOc3ccc(NC(=O)Nc4c(C)noc4C)cc3C2=O)cc1 | 2970 nM |  |  | 6 µM (≈ 4.61 µg/mL) |  |
| Cc1noc(C)c1NC(=O)Nc1ccc2c(c1)C(=O)N([C@@H](C)CO)C[C@@H](C)[C@H](CN(C)S(=O)(=O)c1ccc(F)cc1)OCCCC[C@H](C)O2 | 240 nM | 2.9 | < 5% |  | inhibition at 1.25 h, 10 µM (hERG (KCNH2)): 11% |
| CCN(CC)C[C@H](C)N1C[C@@H](C)[C@H](CN(C)S(=O)(=O)c2ccc(F)cc2)OCCCC[C@H](C)Oc2ccc(NC(=O)Nc3c(C)noc3C)cc2C1=O | 5 nM | 3.1 | 5% | 8 µM (≈ 6.07 µg/mL) |  |
| Cc1noc(C)c1NC(=O)Nc1ccc2c(c1)C(=O)N([C@@H](C)CN1CCOCC1)C[C@@H](C)[C@H](CN(C)S(=O)(=O)c1ccc(F)cc1)OCCCC[C@H](C)O2 | 105 nM | 3.5 | < 5% | 29 µM (≈ 22.4 µg/mL) | inhibition at 1.25 h, 10 µM (hERG (KCNH2)): 1% |
| C[C@H]1[C@H](OC(=O)CCC(=O)O)O[C@@H]2O[C@@]3(C)CC[C@H]4[C@H](C)CC[C@@H]1[C@@]24OO3 [ARTESUNATE] |  |  |  |  | inhibition (INH) (Plasmodium berghei [4]): 97% |
| COc1ccc(COC[C@H](C)N2C[C@@H](C)[C@H](CN(C)S(=O)(=O)c3ccc(F)cc3)OCCCOc3ccc(NC(=O)Nc4c(C)noc4C)cc3C2=O)cc1 | 767 nM |  |  | < 5 µM |  |
| CNC[C@H](C)N1C[C@@H](C)[C@H](CN(C)S(=O)(=O)c2ccc(F)cc2)OCCCCOc2ccc(NC(=O)Nc3c(C)noc3C)cc2C1=O | 624 nM |  | 65% | > 100 µM |  |
| Cc1noc(C)c1NC(=O)Nc1ccc2c(c1)C(=O)N([C@@H](C)CN(C)C)C[C@@H](C)[C@H](CN(C)S(=O)(=O)c1ccc(F)cc1)OCCCC[C@H](C)O2 | 4.2 nM | 2.9 | 8% | > 100 µM | inhibition at 1.25 h, 10 µM (hERG (KCNH2)): 13%; concentration at 2 h [5]: 768 ng/mL; concentration at 0.5 h [6]: 300 ng/mL; fold change (FC) (Plasmodium berghei [7]): 2 |
| COc1ccc(COC[C@H](C)N2C[C@@H](C)[C@H](CN(C)S(=O)(=O)c3ccc(F)cc3)OCCCC[C@H](C)Oc3ccc(NC(=O)Nc4c(C)noc4C)cc3C2=O)cc1 | 0.88 nM |  |  | < 5 µM |  |
| C[C@@H]1CN([C@@H](C)CN(C)C)C(=O)c2cc(NC(=O)Nc3ccc(F)cc3)ccc2O[C@@H](C)CCCCO[C@H]1CN(C)S(=O)(=O)c1ccc(F)cc1 | 1.4 nM | 3.5 | < 5% | < 5 µM |  |
| Cc1noc(C)c1NC(=O)Nc1ccc2c(c1)C(=O)N([C@@H](C)CN(C)C)CC[C@H](CN(C)S(=O)(=O)c1ccc(F)cc1)OCCCC[C@H](C)O2 | 71 nM |  | 2% | 99 µM (≈ 71 µg/mL) |  |
| Cc1noc(C)c1NC(=O)Nc1ccc2c(c1)C(=O)N([C@@H](C)C[N+](C)(C)[O-])C[C@@H](C)[C@H](CN(C)S(=O)(=O)c1ccc(F)cc1)OCCCC[C@H](C)O2 | 160 nM | 1.5 | 35% | > 100 µM |  |
| CNC[C@H](C)N1C[C@@H](C)[C@H](CN(C)S(=O)(=O)c2ccc(F)cc2)OCCCC[C@H](C)Oc2ccc(NC(=O)Nc3c(C)noc3C)cc2C1=O | 320 nM | 1.7 | 51% | > 100 µM |  |
| COc1ccc(COC[C@H](C)N2CC[C@H](CN(C)S(=O)(=O)c3ccc(F)cc3)OCCCC[C@H](C)Oc3ccc(NC(=O)Nc4c(C)noc4C)cc3C2=O)cc1 | 20 nM |  |  | < 5 µM |  |
| COc1ccc(COC[C@H](C)N2C[C@@H](C)[C@H](CN(C)S(=O)(=O)c3ccc(F)cc3)OCCCC[C@H](C)Oc3cccnc3C2=O)cc1 | 403 nM |  |  | < 5 µM |  |
| C[C@@H]1CN([C@@H](C)CN(C)C)C(=O)c2cc(NC(=O)Nc3ccccc3)ccc2O[C@@H](C)CCCCO[C@H]1CN(C)S(=O)(=O)c1ccc(F)cc1 |  | 4.1 |  |  | inhibition at 1.25 h, 10 µM (hERG (KCNH2)): 95% |
| C[C@@H]1CN([C@@H](C)CN(C)C)C(=O)c2cccnc2O[C@@H](C)CCCCO[C@H]1CN(C)S(=O)(=O)c1ccc(F)cc1 | 231 nM |  | < 5% | > 100 µM |  |
| C[C@@H]1CN([C@@H](C)CN(C)C)C(=O)c2cc(NC(=O)NC3COC3)ccc2O[C@@H](C)CCCCO[C@H]1CN(C)S(=O)(=O)c1ccc(F)cc1 | 32 nM | 1.1 | 8% | > 100 µM |  |
| COc1ccc(COC[C@H](C)N2C[C@@H](C)[C@H](CN(C)S(=O)(=O)c3ccc(F)cc3)OCCCC[C@H](C)Oc3c(cnn3C)C2=O)cc1 | 375 nM |  |  | 15 µM (≈ 10.1 µg/mL) |  |

Reference: ChEMBL document CHEMBL3351611, “Diversity-oriented synthesis-facilitated medicinal chemistry: toward the development of novel antimalarial agents” (J Med Chem, 2014)
